Measured values reported in US20100330029A1, “Cancer Treatments with Radiation and Immunocytokines” (Merck Patent GmbH, priority 2008, published 2010).

Experiments:
Assay type in all cases: in vivo, mice
CT26/KSA colon carcinoma = experiment: tumor growth assay, CT26/KSA model; details: Experiments CT26-1-3; 3 or 4 Gy day 0 followed by EMD521873 5 mg/kg i.v. days 2, 3, 4
From the text: CT26 cells, a murine colon epithelial cell line derived by intrarectal injection of N-nitroso-N-methylurethane in BALB/C mice, were transfected to express the human KS antigen (KSA or EpCAM) that was cloned by PCR and expressed in parental cells using a retroviral vector (Gillies 1998). CT26/KSA cells were maintained in DMEM, supplemented with 10% heat inactivated fetal bovine serum, L-glutamine, vitamins, sodium pyruvate, non-essential amino acids, penicillin/streptomycin and Geneticin® (G418) (Life Technologies, Inc.) at 37° C. and 7% CO2. G418 was added to maintain KSA expression. CT26 and CT26/KSA cells were implanted in female BALB/C mice.
For the tumor growth assay, cells growing exponentially in culture were injected as a single cell suspension in 100 μl of PBS intramuscularly into the upper legs of the mice. […] Thereafter, animal survival was monitored. […] Mice were treated on days 0 to 6 and day 17, and tumor size was measured twice weekly for the duration of the study.
Tumors were measured with calipers in three dimensions for the duration of the experiment. Tumor volumes were calculated using the equation: […]
The effect of a single dose of radiation given on day 0 followed by i.v. dosing of the immunocytokine (5 mg/kg) was evaluated in three subcutaneous syngeneic tumor models (CT26 colon carcinoma, CT26/KSA colon carcinoma which expresses human EpCAM, and B16 melanoma). […]

[1] = test system: Lewis lung carcinoma (LLC); experiment: tumor growth assay, Lewis lung carcinoma model; details: for Complete Response Rate: Sel 5 mg/kg d7, 8, 9, Ch/Rx = cisplatin 4 mg/kg d0 plus 3.6 Gy/d d0-4; for tumor growth / complete regressions: Experiments LLC-1, LLC-2, LLC-4
Experimental: LL/2 (LLC) cells, a murine Lewis lung carcinoma cell line, were maintained in DMEM, supplemented with 10% heat-inactivated fetal bovine serum, L-glutamine, penicillin/streptomycin (Life Technologies, Inc.) at 37° C. and 7% CO2. LLC cells were implanted in female C57BL/6 mice.
For the tumor growth assay, cells growing exponentially in culture were injected as a single cell suspension in 100 μl of PBS intramuscularly into the upper legs of the mice. In experiments using a dual tumor model, cells were also implanted in the flanks of the mice. […] In Experiment LLC-7, tumors were implanted in the flank until established. Mice were treated on days 0 to 9, then, on day 12, tumors were excised using survival surgery. Thereafter, animal survival was monitored. In Experiment LLC-14, tumors were implanted subcutaneously in the flank until established. Mice were treated on days 0 to 6 and day 17, and tumor size was measured twice weekly for the duration of the study.
Tumors were measured with calipers in three dimensions for the duration of the experiment. Tumor volumes were calculated using the equation:
Volume=4/3π(L/2×W/2×H/2) • where L=length, W=width and H=height of the tumor
For local irradiation, mice were anesthetized by intraperitoneal injection of a solution of 2% tribromoethanol/3% xylazine. The amount injected was 0.02 ml/gram of the recipient's weight. Mice were restrained so that only their tumor-bearing leg was exposed to radiation, while the reminder of the mouse was shielded. Tumors were irradiated with ^137Cs gamma radiation at a dose rate of 1 Gy/min using a Gammacell® 40 Exactor (Nordion, Ottawa, ON).
Data from the subcutaneous tumor growth assay are presented in graphic form depicting average and standard deviations (sd) of tumor volumes or weights during and after dosing. Animal weight changes were determined by subtracting the animal weight at each time point from the initial body weight, on day 0, then dividing by the initial body weight and multiplying by 100. Therefore a value of 0 indicates no weight change.
Student's 2-tailed t test or Mann-Whitney Rank Sum test, as appropriate, was performed on the individual tumor volumes or animal weights, to determine significant differences between treatment groups.

[2] = test system: immune response markers in the tumor; experiment: immune marker gene expression profiles in B16 tumors; details: 10 Gy d0 followed by EMD521873, compared to either therapy alone
Experimental: Gene profiling of tumors was analyzed using excised tumor tissues placed in RNAlater® RNA stabilizing reagent upon harvest. Total RNA was prepared with an RNeasy® kit (Qiagen) and cDNA was prepared with the Superscript® III kit for qPCR (Life Technologies, Inc.). qPCR reactions were performed on an ABI7500 instrument in a standardized fashion and relative changes in gene expression were analyzed using the ddCt method (efficiency factor 95%). Housekeeping genes used for comparison included ACTB, B2M and HPRT1.
In addition, there was a moderate, but significant increase in certain immune response markers in the tumor as measured by immune marker gene expression profiles with CD25, TNFA, TYROBP, ICOS and CD45 being modulated >4-fold compared to either therapy alone.

[3] = Experiment LLC-6, chemoradiation followed by EMD521873
[4] = LLC-3, EMD521873 with cisplatin plus 1.2 Gy/d
[5] = triple combination of chemoradiation plus EMD521873

“dI-NHS76γ2(h)(FN>AQ)-ala-IL2(D20T) [EMD521873]” was tested, and the “anti-tumor effect (complete regressions)” value (CT26/KSA colon carcinoma) was “a majority of the animals achieved complete regressions”, the “Complete Response Rate” value ([1]; Exp LLC-3) was 0/6 and the “Complete Response Rate” value ([1]; Exp LLC-4) was 1/8. For the same substance, the “Complete Response Rate” value ([1]; Exp LLC-5) was 0/6, the “growth control of the irradiated lesion (leg tumor)” value [1, 3] was “good growth control” and the “growth control of the non-irradiated flank tumor” value [1, 3] was “did not surpass that of EMD521873 alone”. For the same substance, the tumor growth ([1]; EMD521873 5 mg/kg d7, 8, 9 with radiation 3.6 Gy/d d0-4) was “reduced tumor growth compared to any of the single treatments and to the other double treatments”, the complete regressions ([1]; EMD521873 with radiation) was 3/6 and the tumor growth ([1]; cisplatin 4 mg/kg d0 added to radiation/EMD521873) was “further growth control”. For the same substance, the complete regressions ([1]; cisplatin added to radiation/EMD521873 (triple combination)) was 5/6, the complete responses ([1]; Experiments LLC-1, LLC-2, 3.6 Gy days 0-4 followed by EMD521873 5 mg/kg i.v. days 7, 8, 9) was 3/6 and the complete responses ([1]; Experiments LLC-1, LLC-2, EMD521873 monotherapy 5 mg/kg i.v. days 7, 8, 9) was “No complete responses”. For the same substance, the tumor growth control ([1]; LLC-3, EMD521873 5 mg/kg d7, 8, 9 with cisplatin plus 0.4 Gy/d, vs EMD521873 alone or EMD521873 plus cisplatin) was “did not improve tumor growth control”, the complete responses [1, 4] was “no complete responses” and the tumor growth control [1, 4] was “improved growth control compared to either therapy alone”. For the same substance, the complete responses ([1]; LLC-3, cisplatin plus 3.6 Gy/d in combination with EMD521873) was 5/6, the T/C ([1]; LLC-3, day 19, cisplatin plus 3.6 Gy/d in combination with EMD521873) was 0.02 and the T/C ([1]; LLC-3, day 19, single-arm groups: cisplatin plus 3.6 Gy/d without EMD521873, or EMD521873 alone) was 0.69. For the same substance, the complete responses ([1]; LLC-3, single-arm groups: cisplatin plus 3.6 Gy/d without EMD521873, or EMD521873 alone) was 0/6, the “animals with complete response” value ([1]; LLC-8, LLC-9, combination with chemoradiation) was 4/6 and the T/C ([1]; LLC-8, LLC-9, day 21, combination with chemoradiation (cisplatin 4 mg/kg d0 plus 3.6 Gy/d d0-4)) was 0.03. The “response rate (CRs)” value ([1]; LLC-10, 1 mg/kg EMD521873 d7, 8, 9 plus chemoradiation) was 2/8, the “response rate (CRs)” value ([1]; LLC-10, 5 mg/kg EMD521873 d7, 8, 9 plus chemoradiation) was 3/8 and the “response rate (CRs)” value ([1]; LLC-10, 15 mg/kg EMD521873 d7, 8, 9 plus chemoradiation) was 3/8. The “tumor volume (FIG. 9)” value ([1]; LLC-10, 1, 5 and 15 mg/kg EMD521873 in combination with chemoradiation vs EMD521873 alone, chemoradiation alone, vehicle) was “similarly reduced tumor volume”, the tumor growth control ([1]; LLC-11, EMD521873 5 mg/kg d0, 1, 2 followed by radiation for 1 or 2 weeks, vs EMD521873 or radiation alone) was “an increase in tumor growth control” and the “tumor regressions and complete responses” value ([1]; LLC-11, EMD521873 followed by radiation for 1 or 2 weeks) was “neither tumor regressions nor complete responses were achieved”. The tumor regressions ([1]; LLC-12, EMD521873 5 mg/kg days 7, 8, 9 after a single week of radiation (3.6 Gy/d; d0, 2, 4)) was “a majority of tumor regressions”, the complete responses ([1]; LLC-12, EMD521873 after a single week of radiation) was “no complete responses” and the “tumor regressions and tumor growth control” value ([1]; LLC-12, EMD521873 during the 2nd week of a 2 week or 3 week course of radiation, vs EMD521873 or radiation alone) was “tumor regressions and improved tumor growth control”. For the same substance, the complete responses ([1]; LLC-13, cisplatin plus radiation for 1 week followed by EMD521873) was 4/10, the complete responses ([1]; LLC-13, cisplatin plus radiation for three weeks prior to EMD521873) was 0/10 and the tumor growth control ([1]; LLC-13, cisplatin plus radiation for two weeks or three weeks prior to EMD521873) was “neither gave enhancement of tumor growth control compared to chemoradiation alone”. For the same substance, the complete responses ([1]; LLC-13, cisplatin plus radiation for two weeks prior to EMD521873) was 2/10, the tumor growth control ([1]; LLC-13, cisplatin plus radiation in the first week followed by EMD521873) was “enhancement of tumor growth control compared to either therapy alone” and the “tumor growth (FIG. 6)” value ([1]; LLC-14, chemoradiation (cisplatin, 3.6 Gy/d d0-4) combined with immunocytokine on d6 and d17, EMD521873 5 mg/kg i.v., NHS-muIL12 10 μg/animal s.c.) was “enhanced the efficacy of EMD521873”. For the same substance, the “tumor growth (FIG. 7)” value ([1]; immunocytokine administered with chemoradiation, compared to no treatment, chemoradiation alone, immunocytokine alone) was “a decrease in tumor growth”, the “complete regressions (FIG. 8)” value ([1]; treatment alone) was “no complete regressions occurred” and the “tumor growth (FIG. 8)” value ([1]; treatment alone) was “no decrease in tumor growth was seen”. The “complete regressions (FIG. 8)” value [1, 5] was 9/9, the “tumor volume (FIG. 8)” value [1, 5] was “a decrease in tumor volume” and the “CD25, TNFA, TYROBP, ICOS and CD45 gene expression modulated in the tumor” value [2] was > 4 fold.
